From article PMC11219871, “Epigenetic-based differentiation therapy for Acute Myeloid Leukemia” (Nature Communications, 2024)
Where “and” joins values, the source holds several entries; their conditions need not be identical. Equal entries are not always repeated. Where two headings read alike, the source gives them in different places.

Tests used:
Assay type in all cases: cell-based, human
ML-2 [1] = experiment: Differentiation-apoptosis assay, CD11b / annexin-V / Sytox Green / myeloid markers flow cytometry; set-up: Cell viability: concentration or dose not given beside the values; conditions: ML-2, 48 h; replicates (Fig 4A)
Method: (§1) Next, the cells were washed twice with phosphate-buffered saline (PBS) and resuspended in 1X Binding Buffer at a concentration of 1 × 10^6 cells/mL. An 8-µL aliquot of APC-CD11b (BD Pharmingen, Franklin Lakes, NJ, USA) and 1 µL of FITC annexin-V (AV) (BD Pharmingen, Franklin Lakes, NJ, USA) antibodies were added and incubated for 15 min at room temperature in the dark. Finally, after the addition of 400 µL of 1X Binding Buffer to each tube, samples were collected on a BD FACSCanto flow cytometer (Becton Dickinson, San Jose, CA, USA) and analyzed using FlowJo software.
(§2) For the rest of experiments, the mix of antibodies (2 µL of BV786-CD13, Cat No, 744748 BD; 1 µL of diluted 1:10 antibody of PB-HLADR, Cat No 307633, Biolegend; 5 µL of APCH7-CD14, Cat No 641394, BD) was added to 10 µL of Brilliant Stain Buffer Plus (Becton Dickinson, San Jose, CA, USA). Then, 1 million cells (volume of 250 µL) were added and incubated for 30 min at room temperature in darkness. After 10 min incubation at room temperature with 2 mL of FACSLysing 1X, cells were centrifuged at 540 g for 5 min and washed twice with FACSBuffer. Finally, after centrifugation at 540 g for 5 min cells were resuspended in FACSBuffer.

HL-60 [2] = experiment: as above; set-up: Cell viability (%): concentration or dose not given beside the values; conditions: HL-60, 48 h treatment, replicates 1-3 (Suppl. Fig. 5A)
Method: Next, the cells were washed twice with phosphate-buffered saline (PBS) and resuspended in 1X Binding Buffer at a concentration of 1 × 10^6 cells/mL. […] Finally, after the addition of 400 µL of 1X Binding Buffer to each tube, samples were collected on a BD FACSCanto flow cytometer (Becton Dickinson, San Jose, CA, USA) and analyzed using FlowJo software.
Then, 1 million cells (volume of 250 µL) were added and incubated for 30 min at room temperature in darkness. After 10 min incubation at room temperature with 2 mL of FACSLysing 1X, cells were centrifuged at 540 g for 5 min and washed twice with FACSBuffer. Finally, after centrifugation at 540 g for 5 min cells were resuspended in FACSBuffer.

MOLM-13 [3] = experiment: as above; set-up: Cell viability (%): concentration or dose not given beside the values; conditions: MOLM-13, 48 h treatment, replicates 1-3 (Suppl. Fig. 5A)
Method: as §1, §2

MV4-11 [4] = experiment: as above; set-up: Cell viability (%): concentration or dose not given beside the values; conditions: MV4-11, 48 h treatment, replicates 1-3 (Suppl. Fig. 5A)
Method: as §1, §2

ML-2 [5] = experiment: Cell proliferation assay: GI50
Method: (§3) Cell proliferation was analyzed using the CellTiter 96 Aqueous One Solution Cell Proliferation Assay (Promega, Madison, WI). This is a colorimetric method for determining the number of viable cells in proliferation. For the assay, suspension cells were cultured in triplicate at a density of 1 × 10^6 cells/mL in 96-well plates (100.000 cells/well, 100 µL/well), using only the 60 inner wells to avoid any border effects. […] Then, the cells were incubated with 100 μL/well of medium and 20 μL/well of CellTiter 96 Aqueous One Solution reagent for 1–3 h. […] The background absorbance was measured in wells with only cell line medium and solution reagent. First, the average of the absorbance from the control wells was subtracted from all other absorbance values. Data were calculated as the percentage of total absorbance of treated cells/absorbance of non-treated cells. The GI50 values of the different compounds were determined using non-linear regression plots made with GraphPad Prism v5 software.

MOLM-13 [6] = experiment: Cell proliferation assay: GI50
Method: as §3

MV4-11 [7] = experiment: Cell proliferation assay: GI50
Method: as §3

HL-60 [8] = experiment: Cell proliferation assay: GI50; conditions: read-out: GI50
Method: as §3

Question: How did the CD11b (ML-2 [1]) turn out when `Cn1cc(CNCC2CCN(c3ncc(C(=O)NO)cn3)CC2)c2ccccc21` [Quisinostat, reference compound] was run?
Answer: Its CD11b is 35.4% and 25.9% and 25.4%.

Question: What about the Cell viability (ML-2 [1]) of the same molecule?
Answer: Its Cell viability is 86.7% and 75.1% and 77.3%.

Question: What about the “CD11b (%)” value (HL-60 [2]) of the same molecule?
Answer: Its value is 36.8% and 39.6% and 35.4%.

Question: And the “Cell viability (%)” value (HL-60 [2])?
Answer: Its value is 84.1% and 72.6% and 75.5%.

Question: What about the “CD11b (%)” value (MOLM-13 [3]) of the same molecule?
Answer: The value was 55.3% and 50.4% and 58.7%.

Question: And the “Cell viability (%)” value (MOLM-13 [3])?
Answer: Its value is 64.2% and 57.7% and 56.3%.

Question: And the “CD11b (%)” value (MV4-11 [4])?
Answer: Its value is 16.1% and 10.9% and 10.0%.

Question: And the “Cell viability (%)” value (MV4-11 [4])?
Answer: The value was 83.6% and 79% and 74.7%.

Question: And the GI50 (ML-2 [5]; Homo sapiens, ML-2, ML-2)?
Answer: The GI50 was 76 nM.

Question: And the GI50 (ML-2 [5]; Homo sapiens, ML-2, ML-2, replicates 1-3, nM for Panobistat and Quisinostat)?
Answer: Its GI50 is 67.3 nM.

Question: And the GI50 (ML-2 [5]; ML-2, replicates 1-3, nM for Panobistat and Quisinostat)?
Answer: Its GI50 is 89.5 nM and 71.2 nM.

Question: And the GI50 (MOLM-13 [6]; Homo sapiens, MOLM-13, MOLM-13)?
Answer: Its GI50 is 67 nM.

Question: And the GI50 (MOLM-13 [6]; Homo sapiens, MOLM-13, MOLM-13, replicates 1-3, nM for Panobistat and Quisinostat)?
Answer: Its GI50 is 58.9 nM.

Question: What about the GI50 (MOLM-13 [6]; MOLM-13, replicates 1-3, nM for Panobistat and Quisinostat) of the same molecule?
Answer: The GI50 was 73.6 nM and 68.5 nM.

Question: And the GI50 (MV4-11 [7]; Homo sapiens, MV4-11, MV4-11)?
Answer: Its GI50 is 13 nM.

Question: What about the GI50 (MV4-11 [7]; MV4-11, replicates 1-3, nM for Panobistat and Quisinostat) of the same molecule?
Answer: Its GI50 is 13.1 nM and 14.3 nM.

Question: And the GI50 (HL-60 [8]; HL-60, replicates 1-3, nM for Panobistat and Quisinostat)?
Answer: The GI50 was 138 nM and 103 nM.

Question: What about the GI50 (HL-60 [8]; Homo sapiens, HL-60, HL-60, replicates 1-3, nM for Panobistat and Quisinostat) of the same molecule?
Answer: The GI50 was 95.7 nM.

Question: And the GI50 (HL-60 [8]; Homo sapiens, HL-60, HL-60)?
Answer: Its GI50 is 112 nM.

Question: Which results are given for `CN1CCc2c(c3ccccc3n2Cc2ccc(C(=O)NO)cc2)C1` [Tubastatin, reference compound]?
Answer: CD11b (ML-2 [1]): 28.3% and 27.1% and 25.0%; Cell viability (ML-2 [1]): 83.1% and 89.7% and 79.2%; CD11b (%) (HL-60 [2]): 26.8% and 22.6% and 20.1%; Cell viability (%) (HL-60 [2]): 69.4% and 76.8% and 76.1%; CD11b (%) (MOLM-13 [3]): 29.6% and 36.5% and 39.8%; Cell viability (%) (MOLM-13 [3]): 74.1% and 65.3% and 78.4%; CD11b (%) (MV4-11 [4]): 9.3% and 10.2% and 12.6%; Cell viability (%) (MV4-11 [4]): 89.7% and 84.3% and 92.1%; GI50 (ML-2 [5]; ML-2, 48 h): > 10000 nM; GI50 (ML-2 [5]; ML-2, replicates 1-3, µM for the other inhibitors): > 10000 nM; GI50 (MOLM-13 [6]; MOLM-13, 48 h): > 10000 nM; GI50 (MOLM-13 [6]; MOLM-13, replicates 1-3, µM for the other inhibitors): > 10000 nM; GI50 (MV4-11 [7]; MV4-11, 48 h): > 10000 nM; GI50 (MV4-11 [7]; MV4-11, replicates 1-3, µM for the other inhibitors): > 10000 nM; GI50 (HL-60 [8]; HL-60, 48 h): > 10000 nM; GI50 (HL-60 [8]; HL-60, replicates 1-3, µM for the other inhibitors): > 10000 nM
